Test results reported in ChEMBL document CHEMBL1201862, “PubChem BioAssay data set” (2004).
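Interpolation was linear, between the two tested concentrations surrounding the appropriate level; five concentrations were tested over 48 hours in 96-well plates. Here, GI50 denotes the concentration required for 50% inhibition of growth.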 Activity calls are given as the source filed them. Rule as the data show it: active = GI50 up to about 1.1 µM and inactive = higher.

Legend:
Test in all cases: inhibition of tumour cell growth, NCI panel, 48 h
786-0 = system: 786-0
NCI-H522 = system: NCI-H522
SK-MEL-2 = system: SK-MEL-2
LOX IMVI = system: LOX IMVI
HCT-15 = system: HCT-15
DU-145 = system: DU-145
SNB-78 = system: SNB-78
XF498 = system: XF498
A498 = system: A498
NCI-H23 = system: NCI-H23
SK-MEL-28 = system: SK-MEL-28
HCC 2998 = system: HCC 2998
U-251 = system: U-251
OVCAR-4 = system: OVCAR-4
KM12 = system: KM12
MDA-MB-231 = system: MDA-MB-231
PC-3 = system: PC-3
HOP-92 = system: HOP-92
RPMI-8226 = system: RPMI-8226
HOP-62 = system: HOP-62
MOLT-4 = system: MOLT-4
UACC-257 = system: UACC-257
HL-60 = system: HL-60
RXF 393 = system: RXF 393
HCT-116 = system: HCT-116
KM-20L2 = system: KM-20L2
T47D = system: T47D
SK-MEL-5 = system: SK-MEL-5
NCI-H460 = system: NCI-H460
MDA-N = system: MDA-N
DLD-1 = system: DLD-1
M14 = system: M14
MDA-MB-435 = system: MDA-MB-435
SNB-19 = system: SNB-19
CAKI-1 = system: CAKI-1
RXF 631 = system: RXF 631
ACHN = system: ACHN
MCF7 = system: MCF7
Hs-578T = system: Hs-578T
K562 = system: K562
BT-549 = system: BT-549
EKVX = system: EKVX
SN12C = system: SN12C
SF-295 = system: SF-295
A549 = system: A549
M19-MEL = system: M19-MEL
OVCAR-5 = system: OVCAR-5
SK-OV-3 = system: SK-OV-3
DMS-114 = system: DMS-114
TK-10 = system: TK-10
SNB-75 = system: SNB-75
UO-31 = system: UO-31
Malme-3M = system: Malme-3M
SF-539 = system: SF-539
CCRF-CEM = system: CCRF-CEM
NCI-H226 = system: NCI-H226
OVCAR-3 = system: OVCAR-3
HT-29 = system: HT-29
SW-620 = system: SW-620
SF-268 = system: SF-268
COLO 205 = system: COLO 205
OVCAR-8 = system: OVCAR-8
DMS-273 = system: DMS-273
IGROV-1 = system: IGROV-1
LXFL 529 = system: LXFL 529
UACC-62 = system: UACC-62
SR = system: SR

`CC1=C(C(=O)Nc2ccccc2C)C(c2ccc(C3C(C(=O)Nc4ccccc4C)=C(C)NC(C)=C3C(=O)Nc3ccccc3C)cc2)C(C(=O)Nc2ccccc2C)=C(C)N1` was tested, and the GI50 (786-0) was 3.47 µM (inactive), the GI50 (NCI-H522) was 1.89 µM (inactive) and the GI50 (SK-MEL-2) was 9.23 µM (inactive). For the same compound, the GI50 (LOX IMVI) was 1.63 µM (inactive), the GI50 (HCT-15) was 9.4 µM and the GI50 (DU-145) was 15.9 µM (inactive). The GI50 (SNB-78) was 4.16 µM (inactive), the GI50 (XF498) was 15.8 µM (inactive) and the GI50 (A498) was 15.5 µM (inactive). For the same compound, the GI50 (NCI-H23) was 3.21 µM (inactive), the GI50 (SK-MEL-28) was 2.04 µM (inactive) and the GI50 (HCC 2998) was 4.51 µM (inactive). For the same compound, the GI50 (U-251) was 2.25 µM (inactive), the GI50 (OVCAR-4) was 8.99 µM (inactive) and the GI50 (KM12) was 2.16 µM (inactive). The GI50 (MDA-MB-231) was 2.29 µM (inactive), the GI50 (PC-3) was 4.39 µM (inactive) and the GI50 (HOP-92) was 8.38 µM (inactive). For the same compound, the GI50 (RPMI-8226) was 2.51 µM (inactive), the GI50 (HOP-62) was 21.1 µM (inactive) and the GI50 (MOLT-4) was 2.48 µM (inactive). The GI50 (UACC-257) was 2.8 µM (inactive), the GI50 (HL-60) was 2.53 µM (inactive) and the GI50 (RXF 393) was 4.31 µM (inactive). For the same compound, the GI50 (HCT-116) was 2.21 µM (inactive), the GI50 (KM-20L2) was 3.74 µM (inactive) and the GI50 (T47D) was 4.24 µM (inactive). The GI50 (SK-MEL-5) was 12.1 µM (inactive), the GI50 (NCI-H460) was 9.04 µM (inactive) and the GI50 (MDA-N) was 5.6 µM (inactive). The GI50 (DLD-1) was 2.27 µM (inactive), the GI50 (M14) was 2.82 µM (inactive) and the GI50 (MDA-MB-435) was 4.32 µM (inactive). The GI50 (SNB-19) was 11.9 µM (inactive), the GI50 (CAKI-1) was 7.1 µM (inactive) and the GI50 (RXF 631) was 12.8 µM (inactive). For the same compound, the GI50 (ACHN) was 4.52 µM (inactive), the GI50 (MCF7) was 3.37 µM (inactive) and the GI50 (Hs-578T) was 14 µM (inactive). For the same compound, the GI50 (K562) was 2.87 µM (inactive), the GI50 (BT-549) was 2.75 µM (inactive) and the GI50 (EKVX) was 7.31 µM (inactive). For the same compound, the GI50 (SN12C) was 1.71 µM (inactive), the GI50 (SF-295) was 4.57 µM (inactive) and the GI50 (A549) was 10.8 µM (inactive). The GI50 (M19-MEL) was 3.83 µM (inactive), the GI50 (OVCAR-5) was 14.1 µM (inactive) and the GI50 (SK-OV-3) was 15.3 µM (inactive). For the same compound, the GI50 (DMS-114) was 3.75 µM (inactive), the GI50 (TK-10) was 10.7 µM (inactive) and the GI50 (SNB-75) was 14.4 µM (inactive). The GI50 (UO-31) was 13.4 µM (inactive), the GI50 (Malme-3M) was 2.19 µM (inactive) and the GI50 (SF-539) was 4.44 µM (inactive). The GI50 (CCRF-CEM) was 1.95 µM (inactive), the GI50 (NCI-H226) was 14.1 µM (inactive) and the GI50 (OVCAR-3) was 6.67 µM (inactive). The GI50 (HT-29) was 2.03 µM (inactive), the GI50 (SW-620) was 2.49 µM (inactive) and the GI50 (SF-268) was 2.58 µM (inactive). For the same compound, the GI50 (COLO 205) was 3.7 µM (inactive), the GI50 (OVCAR-8) was 2.8 µM (inactive) and the GI50 (DMS-273) was 3.16 µM (inactive). The GI50 (IGROV-1) was 3.16 µM (inactive), the GI50 (LXFL 529) was 2.84 µM (inactive) and the GI50 (UACC-62) was 2.03 µM (inactive). The GI50 (SR) was 2.67 µM (inactive).
